# Like-named read-outs stand apart in the source and are kept apart here.
# What was measured:
# HUVEC cells = assay: CCK-8 cell viability: alleviation of proliferative toxicity of anti-tumor agents on HUVEC cells (Tables 7-1, 7-2); assay type: cell-based; settings: for activation at 100 µM: Homo sapiens, 24 h, percentage increase in viable cells vs anti-tumor agent alone, read-out: Response rate % (average)
# In short: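 Viability was measured by CCK-8 after 24-48 h of culture. Cells received anti-tumor agent in DMSO with or without co-added NO-NSAID (dissolved in ethanol or sterile water), and results were corrected against the matching NO-NSAID solvent control.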
# [1] = tested on: gastric epithelial cells (GES-1); assay: CCK-8 cell viability: alleviation of proliferative toxicity of anti-tumor agents on GES-1 (Table 8-3); assay type: cell-based, human; settings: NO-NSAID 100 μM
# In short: (§1)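 Cells seeded at 5,000-10,000 per well and exposed to anti-tumor agent (DMSO solvent) alone or with NO-NSAID (ethanol or water solvent), with solvent controls used for correction. Viability read by CCK-8 after 24-48 hours; proliferative toxicity and its alleviation compared by t test.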
# [2] = tested on: human oral keratinocytes (HOK); assay: CCK-8 cell viability: alleviation of proliferative toxicity of anti-tumor agents on HOK (Table 8-2); assay type: cell-based; settings: NO-NSAID 100 μM
# In short: as §1
# [3] = Afatinib (10 μM), NO-NSAID 100 μM
# [4] = Cabozantinib (5 μM), NO-NSAID 100 μM
# [5] = Dabrafenib (10 μM), NO-NSAID 100 μM
# [6] = Everolimus (5 μM), NO-NSAID 100 μM
# [7] = Infigratinib (15 μM), NO-NSAID 100 μM
# [8] = Lapatinib (5 μM), NO-NSAID 100 μM
# [9] = Lenvatinib (10 μM), NO-NSAID 100 μM
# [10] = Olmutinib (10 μM), NO-NSAID 100 μM
# [11] = Regorafenib (5 μM), NO-NSAID 100 μM
# [12] = Selumetinib (5 μM), NO-NSAID 100 μM
# [13] = Sorafenib (5 μM), NO-NSAID 100 μM
# [14] = Sunitinib (5 μM), NO-NSAID 100 μM
smiles,measurement,setting,value
CC(C)Cc1ccc(C(C)C(=O)OCO/N=[N+](\[O-])N(C)C)cc1 (stereo not shown) [Compound A4],NO-NSAID response rate % (average),"HUVEC cells; Afatinib (10 μM), NO-NSAID 0.1 μM",18%
same,NO-NSAID response rate % (average),"HUVEC cells; Afatinib (10 μM), NO-NSAID 1 μM",35%
same,NO-NSAID response rate % (average),HUVEC cells; [3],70%
same,NO-NSAID response rate % (average),"HUVEC cells; Afatinib (10 μM), NO-NSAID 500 μM",14%
same,NO-NSAID response rate % (average),"HUVEC cells; Cabozantinib (5 μM), NO-NSAID 0.1 μM",3%
same,NO-NSAID response rate % (average),"HUVEC cells; Cabozantinib (5 μM), NO-NSAID 1 μM",9%
same,NO-NSAID response rate % (average),HUVEC cells; [4],13%
same,NO-NSAID response rate % (average),"HUVEC cells; Cabozantinib (5 μM), NO-NSAID 500 μM",11%
same,NO-NSAID response rate % (average),"HUVEC cells; Dabrafenib (10 μM), NO-NSAID 0.1 μM",20%
same,NO-NSAID response rate % (average),"HUVEC cells; Dabrafenib (10 μM), NO-NSAID 1 μM",34%
same,NO-NSAID response rate % (average),HUVEC cells; [5],33%
same,NO-NSAID response rate % (average),"HUVEC cells; Dabrafenib (10 μM), NO-NSAID 500 μM",41%
same,NO-NSAID response rate % (average),"HUVEC cells; Everolimus (5 μM), NO-NSAID 0.1 μM",10%
same,NO-NSAID response rate % (average),"HUVEC cells; Everolimus (5 μM), NO-NSAID 1 μM",−2%
same,NO-NSAID response rate % (average),HUVEC cells; [6],1%
same,NO-NSAID response rate % (average),"HUVEC cells; Everolimus (5 μM), NO-NSAID 500 μM",4%
same,activation at 100 µM,HUVEC cells; [3],70%
same,activation at 100 µM,"HUVEC cells; Anlotinib (5 μM), NO-NSAID 100 μM",67%
same,activation at 100 µM,"HUVEC cells; Apatinib (10 μM), NO-NSAID 100 μM",52%
same,activation at 100 µM,"HUVEC cells; Axitinib (10 μM), NO-NSAID 100 μM",39%
same,activation at 100 µM,HUVEC cells; [4],13%
same,activation at 100 µM,HUVEC cells; [5],33%
same,activation at 100 µM,"HUVEC cells; Dacomitinib (5 μM), NO-NSAID 100 μM",71%
same,activation at 100 µM,"HUVEC cells; Encorafenib (5 μM), NO-NSAID 100 μM",59%
same,activation at 100 µM,"HUVEC cells; Erdafitinib (10 μM), NO-NSAID 100 μM",45%
same,activation at 100 µM,HUVEC cells; [6],1%
same,activation at 100 µM,"HUVEC cells; Famitinib (5 μM), NO-NSAID 100 μM",69%
same,activation at 100 µM,"HUVEC cells; Fruquintinib (10 μM), NO-NSAID 100 μM",62%
same,activation at 100 µM,"HUVEC cells; Gefitinib (10 μM), NO-NSAID 100 μM",42%
same,activation at 100 µM,HUVEC cells; [7],30%
same,activation at 100 µM,HUVEC cells; [8],30%
same,activation at 100 µM,HUVEC cells; [9],74%
same,activation at 100 µM,HUVEC cells; [10],28%
same,activation at 100 µM,HUVEC cells; [11],74%
same,activation at 100 µM,HUVEC cells; [12],34%
same,activation at 100 µM,HUVEC cells; [13],76%
same,activation at 100 µM,HUVEC cells; [14],34%
same,activation at 100 µM,"HUVEC cells; Vemurafenib (5 μM), NO-NSAID 100 μM",58%
same,NO-NSAID response rate % (average),"HUVEC cells; Infigratinib (15 μM), NO-NSAID 0.1 μM",23%
same,NO-NSAID response rate % (average),"HUVEC cells; Infigratinib (15 μM), NO-NSAID 1 μM",39%
same,NO-NSAID response rate % (average),HUVEC cells; [7],30%
same,NO-NSAID response rate % (average),"HUVEC cells; Infigratinib (15 μM), NO-NSAID 500 μM",18%
same,NO-NSAID response rate % (average),"HUVEC cells; Lapatinib (5 μM), NO-NSAID 0.1 μM",20%
same,NO-NSAID response rate % (average),"HUVEC cells; Lapatinib (5 μM), NO-NSAID 1 μM",17%
same,NO-NSAID response rate % (average),HUVEC cells; [8],30%
same,NO-NSAID response rate % (average),"HUVEC cells; Lapatinib (5 μM), NO-NSAID 500 μM",28%
same,NO-NSAID response rate % (average),"HUVEC cells; Lenvatinib (10 μM), NO-NSAID 0.1 μM",24%
same,NO-NSAID response rate % (average),"HUVEC cells; Lenvatinib (10 μM), NO-NSAID 1 μM",15%
same,NO-NSAID response rate % (average),HUVEC cells; [9],74%
same,NO-NSAID response rate % (average),"HUVEC cells; Lenvatinib (10 μM), NO-NSAID 500 μM",14%
same,NO-NSAID response rate % (average),"HUVEC cells; Olmutinib (10 μM), NO-NSAID 0.1 μM",25%
same,NO-NSAID response rate % (average),"HUVEC cells; Olmutinib (10 μM), NO-NSAID 1 μM",38%
same,NO-NSAID response rate % (average),HUVEC cells; [10],28%
same,NO-NSAID response rate % (average),"HUVEC cells; Olmutinib (10 μM), NO-NSAID 500 μM",30%
same,NO-NSAID response rate % (average),"HUVEC cells; Regorafenib (5 μM), NO-NSAID 0.1 μM",29%
same,NO-NSAID response rate % (average),"HUVEC cells; Regorafenib (5 μM), NO-NSAID 1 μM",26%
same,NO-NSAID response rate % (average),HUVEC cells; [11],74%
same,NO-NSAID response rate % (average),"HUVEC cells; Regorafenib (5 μM), NO-NSAID 500 μM",26%
same,NO-NSAID response rate % (average),"HUVEC cells; Selumetinib (5 μM), NO-NSAID 0.1 μM",35%
same,NO-NSAID response rate % (average),"HUVEC cells; Selumetinib (5 μM), NO-NSAID 1 μM",33%
same,NO-NSAID response rate % (average),HUVEC cells; [12],34%
same,NO-NSAID response rate % (average),"HUVEC cells; Selumetinib (5 μM), NO-NSAID 500 μM",41%
same,NO-NSAID response rate % (average),"HUVEC cells; Sorafenib (5 μM), NO-NSAID 0.1 μM",4%
same,NO-NSAID response rate % (average),"HUVEC cells; Sorafenib (5 μM), NO-NSAID 1 μM",17%
same,NO-NSAID response rate % (average),HUVEC cells; [13],76%
same,NO-NSAID response rate % (average),"HUVEC cells; Sorafenib (5 μM), NO-NSAID 500 μM",16%
same,NO-NSAID response rate % (average),"HUVEC cells; Sunitinib (5 μM), NO-NSAID 0.1 μM",19%
same,NO-NSAID response rate % (average),"HUVEC cells; Sunitinib (5 μM), NO-NSAID 1 μM",20%
same,NO-NSAID response rate % (average),HUVEC cells; [14],34%
same,NO-NSAID response rate % (average),"HUVEC cells; Sunitinib (5 μM), NO-NSAID 500 μM",20%
same,Response rate % (average),[1]; Afatinib (10 μM),16%
same,Response rate % (average),[1]; Cabozantinib (5 μM),29%
same,Response rate % (average),[1]; Dabrafenib (10 μM),6%
same,Response rate % (average),[1]; Everolimus (5 μM),23%
same,Response rate % (average),[1]; Infigratinib (15 μM),36%
same,Response rate % (average),[1]; Lapatinib (5 μM),22%
same,Response rate % (average),[1]; Lenvatinib (10 μM),36%
same,Response rate % (average),[1]; Olmutinib (10 μM),21%
same,Response rate % (average),[1]; Regorafenib (5 μM),29%
same,Response rate % (average),[1]; Selumetinib (5 μM),2%
same,Response rate % (average),[1]; Sorafenib (5 μM),22%
same,Response rate % (average),[1]; Sunitinib (5 μM),0%
same,Response rate % (average),[2]; Afatinib (10 μM),34%
same,Response rate % (average),[2]; Cabozantinib (5 μM),24%
same,Response rate % (average),[2]; Dabrafenib (10 μM),2%
same,Response rate % (average),[2]; Everolimus (5 μM),−3%
same,Response rate % (average),[2]; Infigratinib (15 μM),18%
same,Response rate % (average),[2]; Lapatinib (5 μM),0%
same,Response rate % (average),[2]; Lenvatinib (10 μM),33%
same,Response rate % (average),[2]; Olmutinib (10 μM),24%
same,Response rate % (average),[2]; Regorafenib (5 μM),15%
same,Response rate % (average),[2]; Selumetinib (5 μM),−2%
same,Response rate % (average),[2]; Sorafenib (5 μM),29%
same,Response rate % (average),[2]; Sunitinib (5 μM),11%
